Reference: patent publication US8961930B2, “Isatin derivatives for use as in vivo imaging agents” (Imperial Innovations Limited, priority 2008, dated 2015)

Tests used:
[1] = test system: caspase-3 cognate target poly(ADP-ribose) polymerase (PARP); test: Cellular activity: PARP cleavage immunoblot in cisplatin-treated RIF-1 cells; type: cell-based, murine; conditions: 15 min pre-incubation, cisplatin 100 μM 48 h
Description: The Δ-PARP immunoblot band corresponds to the endogenous 89 kDa large fragment of PARP resulting from caspase 3 cleavage. α-tubulin was used as a loading control.

PEO1 xenograft = test: In vivo [^18F]11 biodistribution and PET imaging, PEO1 xenograft; set-up: species or system mice; conditions: for 60 min biodistribution, Bone / 60 min biodistribution, Kidney / 60 min biodistribution, L. Intestine / 60 min biodistribution, Liver / 60 min biodistribution, Lung / 60 min biodistribution, Muscle / 60 min biodistribution, S. Intestine / 60 min biodistribution, Spleen / 60 min biodistribution, Tumour: PEO1
Description: (§1) In vivo tumour models were established by subcutaneous injection of PEO1/4 (10×10^6 cells, with v/v matrigel, BD Biosciences, Oxford, UK), RIF-1 (5×10^5 cells) and LNM35 (1×10^6 cells) on the back of 6-8 weeks old female nu/nu-BALB/c or male C3H/hej mice (Harlan, Bicester, Oxfordshire, UK). Tumour growth was monitored every two days using electronic callipers, and tumour volume estimated using (π/6)×L×W×D (L=length, W=width and D=depth). All animal work was done by licensed investigators in accordance with the United Kingdom's “Guidance on the Operation of Animals (Scientific Procedures) Act 1986” (HMSO, London, United Kingdom, 1990) and in full compliance with government regulations and guidelines on the welfare of animals in experimental neoplasia.
(§2) For biodistribution studies, tumour-bearing mice were treated with 10 mg/kg cisplatin or vehicle for 24 h, anesthetized with isofluorane/O2/N2O and injected i.v. in the lateral tail vein with ˜100 μCi [^18F]11 for the indicated time. The different tissues were removed, weighted and placed in counting tubes for immediate Fluorine-18 radioactivity counting.
(§3) Tumour-bearing mice treated with Cisplatin (10 mg/kg for 24 h) or vehicle were scanned on a dedicated small animal PET scanner (quad-HIDAC; Oxford Positron Systems, Weston-on-the-Green, United Kingdom). Anesthetized animals were placed within a thermostatically controlled bed and positioned prone within the scanner. The bed was calibrated to provide a mouse rectal temperature of ˜37° C. A bolus injection of [^18F]11 (˜100 μCi) was given intravenously (i.v.) via the tail vein cannula and scanning commenced. Dynamic emission scans were acquired in list-mode format over 60 minutes. The acquired data were then sorted into 0.5-mm sinogram bins and 19 time frames (0.5×0.5×0.5 mm voxels; 4×15, 4×60, and 11×300 seconds) for image reconstruction, which was done by filtered back projection using a two-dimensional Hamming filter (cutoff 0.6). The image data-sets obtained were transferred to a SUN workstation (Ultra 10; SUN Microsystems, Santa Clara, Calif.) and visualized using the Analyze software (version 6.0; Biomedical Imaging Resource, Mayo Clinic, Rochester, Minn.). Cumulative images of the dynamic data composed of 0 to 1 minute after injection and 30 to 60 minutes after injection were used for visualization of radiotracer uptake and to define the regions of interest (ROI). The count densities were averaged for each ROI at each of the 19 time points to obtain a time versus radioactivity curve (TAC) for the ROIs. Tumour TAC was normalized to that of heart at each of the time points to obtain the normalized uptake value (NUV). The [^18F]9 data from […] were used as internal input function for normalizing tumour data. […] FRT is a useful variable in that it indicates the proportion of radiotracer delivered to the tumour that is retained. It therefore normalizes tumor [^18F]9 uptake to delivery.

RIF-1 xenograft = test: In vivo [^18F]11 biodistribution and PET imaging, RIF-1 xenograft; set-up: species or system mice; conditions: for 60 min biodistribution, Bone / 60 min biodistribution, Kidney / 60 min biodistribution, L. Intestine / 60 min biodistribution, Liver / 60 min biodistribution, Lung / 60 min biodistribution, Muscle / 60 min biodistribution, S. Intestine / 60 min biodistribution, Spleen / 60 min biodistribution, Tumour: RIF-1
Description: as §1, §2, §3
RIF-1 tumor was treated with vehicle (50% DMSO) or CDDP (10 mg/kg single dose). The [^18F]-derived radioactivity levels at 60 min post radiotracer injection were analysed and expressed as a ratio to that of blood. […] 1.5-fold increase in uptake of [^18F]11 for treated mice over vehicle treated mice. Data are mean±SEM and n=8 mice per group.

SMILES: O=C1C(=O)N(Cc2cn(CCF)nn2)c2ccc(S(=O)(=O)N3CCC[C@H]3COc3ccc(F)cc3F)cc21 [Compound 11, (S)-1-((1-(2-Fluoroethyl)-1H-[1,2,3]-triazol-4-yl)methyl)-5-(2(2,4-difluorophenoxymethyl)-pyrrolidine-1-sulfonyl)isatin]
- effect on induction of cleaved PARP by cisplatin induced apoptosis [1]: disrupted the induction of caspase-3 cognate target PARP by cisplatin induced apoptosis

SMILES: O=C1C(=O)N(Cc2cn(CC[18F])nn2)c2ccc(S(=O)(=O)N3CCC[C@H]3COc3ccc(F)cc3F)cc21 [[^18F]11, (S)-1-((1-(2-Fluoroethyl)-1H-[1,2,3]-triazol-4-yl)methyl)-5-(2(2,4-difluorophenoxymethyl)-pyrrolidine-1-sulfonyl)isatin]
- 60 min biodistribution, Bone (PEO1 xenograft; CDDP treated): 1.51 ± 1.02
- 60 min biodistribution, Bone (PEO1 xenograft; Control): 0.64 ± 0.09
- PET image: uptake in the tumour (PEO1 xenograft; CDDP-treated mouse, PEO1 xenograft, 30-60 min): significant uptake
- 60 min biodistribution, Kidney (PEO1 xenograft; CDDP treated): 8.53 ± 3.64
- 60 min biodistribution, Kidney (PEO1 xenograft; Control): 6.59 ± 1.94
- 60 min biodistribution, L. Intestine (PEO1 xenograft; CDDP treated): 3.24 ± 1.81
- 60 min biodistribution, L. Intestine (PEO1 xenograft; Control): 1.81 ± 0.37
- 60 min biodistribution, Liver (PEO1 xenograft; CDDP treated): 8.20 ± 2.09
- 60 min biodistribution, Liver (PEO1 xenograft; Control): 9.98 ± 2.51
- 60 min biodistribution, Lung (PEO1 xenograft; CDDP treated): 4.90 ± 1.05
- 60 min biodistribution, Lung (PEO1 xenograft; Control): 4.25 ± 0.57
- 60 min biodistribution, Muscle (PEO1 xenograft; CDDP treated): 1.34 ± 0.28
- 60 min biodistribution, Muscle (PEO1 xenograft; Control): 0.98 ± 0.14
- uptake in the tumour of CDDP treated vs control mice (PEO1 xenograft; PEO1 xenografts, 60 min): significant increased uptake
- 60 min biodistribution, S. Intestine (PEO1 xenograft; CDDP treated): 9.09 ± 5.82
- 60 min biodistribution, S. Intestine (PEO1 xenograft; Control): 4.27 ± 0.78
- 60 min biodistribution, Spleen (PEO1 xenograft; CDDP treated): 1.65 ± 0.22
- 60 min biodistribution, Spleen (PEO1 xenograft; Control): 1.19 ± 0.26
- 60 min biodistribution, Tumour (PEO1 xenograft; CDDP treated): 2.96 ± 1.25
- 60 min biodistribution, Tumour (PEO1 xenograft; Control): 1.37 ± 0.25
- 60 min biodistribution, Bone (RIF-1 xenograft; CDDP treated): 1.78 ± 1.72
- 60 min biodistribution, Bone (RIF-1 xenograft; Control): 1.06 ± 0.49
- PET image: uptake in the tumour (RIF-1 xenograft; CDDP-treated mouse, RIF-1 xenograft, 30-60 min): significant uptake
- 60 min biodistribution, Kidney (RIF-1 xenograft; CDDP treated): 5.50 ± 2.59
- 60 min biodistribution, Kidney (RIF-1 xenograft; Control): 8.49 ± 2.00
- 60 min biodistribution, L. Intestine (RIF-1 xenograft; CDDP treated): 2.88 ± 1.52
- 60 min biodistribution, L. Intestine (RIF-1 xenograft; Control): 2.66 ± 0.67
- 60 min biodistribution, Liver (RIF-1 xenograft; CDDP treated): 10.58 ± 4.64
- 60 min biodistribution, Liver (RIF-1 xenograft; Control): 11.36 ± 2.39
- 60 min biodistribution, Lung (RIF-1 xenograft; CDDP treated): 3.23 ± 0.43
- 60 min biodistribution, Lung (RIF-1 xenograft; Control): 4.47 ± 1.00
- 60 min biodistribution, Muscle (RIF-1 xenograft; CDDP treated): 1.09 ± 0.54
- 60 min biodistribution, Muscle (RIF-1 xenograft; Control): 1.76 ± 1.33
- increase in tumour uptake (ratio to blood), treated over vehicle treated mice (RIF-1 xenograft; RIF-1 tumour, CDDP 10 mg/kg single dose, 60 min post injection): ~1.5 fold
- 60 min biodistribution, S. Intestine (RIF-1 xenograft; CDDP treated): 11.08 ± 6.00
- 60 min biodistribution, S. Intestine (RIF-1 xenograft; Control): 14.93 ± 12.68
- 60 min biodistribution, Spleen (RIF-1 xenograft; CDDP treated): 1.85 ± 0.76
- 60 min biodistribution, Spleen (RIF-1 xenograft; Control): 1.85 ± 0.19
- 60 min biodistribution, Tumour (RIF-1 xenograft; CDDP treated): 1.31 ± 1.04
- 60 min biodistribution, Tumour (RIF-1 xenograft; Control): 0.96 ± 0.10
